Test results published in US10196385B2, “Tetrahydropyranyl benzamide derivatives” (Eli Lilly and Company, priority 2015, dated 2019).

How the values were obtained:
[1] = target: human GPR142 (Homo sapiens (Human), UniProt Q7Z601); assay: GPR142 Agonist Effect as Measured by IP-1 Assay; type: cell-based; conditions: HEK293 cells expressing human GPR142, Mean ± SEM; for Efficacy: IP-1 assay; for EC50: IP-One HTRF, read-out: hGPR142 IP1 EC50
Method: GPR142 Agonist Effect as Measured by IP-1 Assay
The purpose of this assay is to detect GPR142 agonist effect.
HEK293 cells expressing human GPR142 are maintained in DMEM supplemented with 10% FBS and 800 μg/ml G418 (Geneticin®) at 37° C. and 5% CO2. The cells are plated in 384 well plates at 5000 cells per well and allowed 18 hours for attachment. After addition of compounds at varying concentrations ranging from 30 μM to 1 nM, cells are incubated for 1 hr. IP-1 measurements are performed using an IP-One HTRF® assay kit (Cisbio) according to manufacturer's protocol using assay buffer containing 1×HBSS (+Ca, +Mg), 0.1% BSA, 50 mM LiCl and 20 mM HEPES, pH 7.2. The reaction is stopped by addition of IP1-d2 (IP-1 coupled to an organic HTRF acceptor) followed by cryptate solution (http://www.htrf.com/usa/htrf-chemistry). The plates are incubated at 25° C. for 1 hr. Fluorescence is read in an Envision instrument at 665 nm and 620 nm wavelength. The ratio of 665 nm/620 nm is calculated and converted to IP-1 levels using an IP-1 standard curve. The data is fit to a 4 parameter-fit logistics to determine EC50 values.

[2] = target: GPR142 (Mus musculus (Mouse), UniProt Q7TQN9); assay: Intraperitoneal Glucose Tolerance Tests (IPGTT); type: in vivo; conditions: male C57BL/6 mice; for ED50 / ED80: oral dosing 30 minutes prior to i.p. glucose challenge (2 g/kg), glucose AUC lowering; for considered positive in the assay (reduction in glucose AUC, P<0.05): oral dosing, IPGTT
Method: Intraperitoneal Glucose Tolerance Tests (IPGTT)
IPGTT assay is used to examine the ability of exemplified compounds to activate GPR142 in vivo resulting in anti-diabetic efficacy, i.e. reduction in plasma glucose levels. Male C57BL/6 mice (8-10 weeks of age) are fed normal rodent chow diet and water ad libitum. On the night before the study, animals are fasted overnight in clean cages. On the morning of the study, animals are dosed orally with vehicle or compound at the indicated doses 30 minutes prior to the glucose challenge (2 g/kg) by intraperitoneal injection. Blood glucose levels are determined from tail bleeds taken immediately prior to compound dosing (−30 min) and 0, 15, 30, and 60 min after glucose challenge using handheld glucometers. Plasma is isolated from tail bleeds taken at 7 min after glucose challenge and used to determine insulin levels by the Rat/Mouse Insulin Elisa kit (Millipore) or MA6000 Mouse/Rat Insulin Kit (MSD). The blood glucose profile from t=0 to t=60 min is used to calculate an area under the curve (AUC) for each treatment. Percent lowering in glucose AUC is calculated for each treatment group with respect to the AUC of vehicle group. A compound with a reduction in glucose AUC (P<0.05) is considered positive in the assay.

human GPR142, sequence (Q7Z601 whole entry): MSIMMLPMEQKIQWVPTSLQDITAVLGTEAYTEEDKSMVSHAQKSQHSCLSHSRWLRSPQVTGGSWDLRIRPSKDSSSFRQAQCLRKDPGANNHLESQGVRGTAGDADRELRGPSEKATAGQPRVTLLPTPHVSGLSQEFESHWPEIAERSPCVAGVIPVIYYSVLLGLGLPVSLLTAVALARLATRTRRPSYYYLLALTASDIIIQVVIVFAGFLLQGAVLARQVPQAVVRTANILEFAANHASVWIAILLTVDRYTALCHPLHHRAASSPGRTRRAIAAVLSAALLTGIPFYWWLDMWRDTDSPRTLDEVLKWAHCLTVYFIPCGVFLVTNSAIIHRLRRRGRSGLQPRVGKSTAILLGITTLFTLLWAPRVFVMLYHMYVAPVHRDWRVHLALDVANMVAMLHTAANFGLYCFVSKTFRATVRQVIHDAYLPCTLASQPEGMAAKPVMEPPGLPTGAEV
GPR142, sequence (Q7TQN9 whole entry): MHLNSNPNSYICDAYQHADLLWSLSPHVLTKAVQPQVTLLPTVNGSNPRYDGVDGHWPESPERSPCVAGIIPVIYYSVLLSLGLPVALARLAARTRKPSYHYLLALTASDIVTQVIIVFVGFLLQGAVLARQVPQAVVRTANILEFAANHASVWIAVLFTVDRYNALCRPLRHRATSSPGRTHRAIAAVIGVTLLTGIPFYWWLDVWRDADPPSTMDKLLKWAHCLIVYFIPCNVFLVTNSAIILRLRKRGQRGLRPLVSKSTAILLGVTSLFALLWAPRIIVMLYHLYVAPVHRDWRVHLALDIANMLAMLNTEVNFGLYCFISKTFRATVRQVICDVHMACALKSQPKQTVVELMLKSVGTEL

Efficacy [1]	EC50 [1]	Compound	ED50 [2]	ED80 [2]	considered positive in the assay (reduction in glucose AUC, P<0.05) [2]
109 ± 3, n = 12%	43.5 ± 7.9 nM	Cc1ncn(C)c1-c1nnc([C@@H]2C[C@H](N(C)C(=O)c3cccc(C(F)(F)F)c3)CCO2)[nH]1 (single isomer, unassigned; isomer 1) [Example 1, Cis-(chiral)-N-[(2-[5-(1,4-Dimethyl-1H-imidazol-5-yl)-4H-1,2,4-triazol-3-yl]tetrahydro-2H-pyran-4-yl]-N-methyl-3-(trifluoromethyl)benzamide, Isomer 1]	0.30 mpk	1.6 mpk	positive
110 ± 2, n = 11%	30.1 ± 4.2 nM	Cc1ncn(C)c1-c1nnc([C@@H]2C[C@H](N(C)C(=O)c3cccc(OC(F)(F)F)c3)CCO2)[nH]1 (single isomer, unassigned; isomer 1) [Example 2, Cis-(chiral)-N-[2-[5-(1,4-Dimethyl-1H-imidazol-5-yl)-4H-1,2,4-triazol-3-yl]tetrahydro-2H-pyran-4-yl]-N-methyl-3-(trifluoromethoxy)benzamide, Isomer 1]	0.24 mpk	1.6 mpk	positive
112 ± 3, n = 7%	27.2 ± 4.8 nM	Cc1ncn(C)c1-c1nnc([C@@H]2C[C@H](N(C)C(=O)c3cccc(Cl)c3)CCO2)[nH]1 (single isomer, unassigned; isomer 1) [Example 3, Cis-(chiral)-3-Chloro-N-[2-[5-(1,4-dimethyl-1H-imidazol-5-yl)-4H-1,2,4-triazol-3-yl]tetrahydro-2H-pyran-4-yl]-N-methyl-benzamide, Isomer 1]			
